The text below walks through data of PMC6485449 (Clinical cancer research : an official journal of the …, 2013).

For orientation: inhibition means the relative decrease from the control value, in per cent. Usually EC50 stands for the concentration that produces a half-maximal response.

For series [1], the system named is MDA-MB-231. Kind of series: Single-agent 2-D cytotoxicity assay, MDA-MB-231. It is filed as cell-based. As to conditions: Homo sapiens, MDA-MB-231, read-out: SF50 MDA-MB-231.
Series [2] has as its system MRC-5 (Normal). Put plainly: Single-agent 2-D cytotoxicity assay, MRC-5. It is filed as cell-based, human.
In series [3] the test system is LoVo cells. Kind of series: Temozolomide potentiation. It is filed as cell-based, human.
Series [4] has as its system Capan-1 (BRCA2 deficient). Put plainly: Single-agent cytotoxicity assay, Capan-1. It is filed as cell-based, human.
For series [5], the system named is PC-3 (PTEN deficient). Kind of series: Single-agent 2-D cytotoxicity assay, PC-3. As to conditions: Homo sapiens, read-out: SF50 PC-3 (PTEN deficient). It is filed as cell-based.
Series [6] concerns MX-1 tumor xenografts. Put plainly: Cisplatin combination study, MX-1 xenograft. It is filed as in vivo, mice.
The subject of series [7] is MX-1 tumor PAR levels. Put plainly: PAR assay in vivo. On the set-up: species or system mice.
The target in series [8] is recombinant human PARP1 (Homo sapiens, UniProt P09874). Particulars: for off-rate / on-rate: immobilized rhPARP1, Biacore T200. On the technique in general: Surface plasmon resonance follows binding to a sensor surface in real time, without labels.
Series [9] concerns the target CYP3A4 (Homo sapiens, UniProt P08684). Kind of series: CYP450 inhibition, CYP3A4. It is filed as in vitro ADME. Particulars: concentrations up to 10 μM; data not shown.
Series [10] deals with MX-1 cells. Kind of series: SN-38 chemo-sensitization assay. It is filed as cell-based, human. As to conditions: MX-1 cells in vitro, 5 days.
Series [11] has as its target T1, CYP1A2 (Homo sapiens, UniProt P05177).
T1 sequence (P05177 1-516): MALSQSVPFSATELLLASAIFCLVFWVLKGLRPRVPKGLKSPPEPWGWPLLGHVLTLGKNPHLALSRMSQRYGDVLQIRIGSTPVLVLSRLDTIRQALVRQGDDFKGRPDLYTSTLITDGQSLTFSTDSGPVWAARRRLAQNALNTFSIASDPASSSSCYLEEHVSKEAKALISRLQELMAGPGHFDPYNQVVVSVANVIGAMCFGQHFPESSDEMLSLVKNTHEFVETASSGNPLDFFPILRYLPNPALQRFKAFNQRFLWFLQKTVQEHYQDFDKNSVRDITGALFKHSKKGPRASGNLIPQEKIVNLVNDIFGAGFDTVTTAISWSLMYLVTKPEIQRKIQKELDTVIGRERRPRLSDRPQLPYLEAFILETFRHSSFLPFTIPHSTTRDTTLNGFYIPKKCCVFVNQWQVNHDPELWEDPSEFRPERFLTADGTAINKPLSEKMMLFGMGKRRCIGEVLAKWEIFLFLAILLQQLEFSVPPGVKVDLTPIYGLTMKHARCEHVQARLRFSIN
Put plainly: CYP450 inhibition, CYP1A2. It is filed as in vitro ADME. Particulars: concentrations up to 10 μM; data not shown.

Series [12] concerns the target CYP2C19 (Homo sapiens, UniProt P33261). Put plainly: CYP450 inhibition, CYP2C19. It is filed as in vitro ADME. Particulars: concentrations up to 10 μM; data not shown.
Series [13] concerns the target Poly (ADP-ribose) Glycohydrolase (PARG) (Homo sapiens, UniProt Q86W56). Kind of series: PARG activity assay. It is filed as biochemical. As to conditions: concentrations up to 1 μM; data not shown.
The target in series [14] is CYP2C9 (Homo sapiens, UniProt P11712). Kind of series: CYP450 inhibition, CYP2C9. It is filed as in vitro ADME. As to conditions: concentrations up to 10 μM; data not shown.
Series [15] is described as follows: Combination with platinum drugs in vitro. Particulars: data not shown. It is filed as cell-based.
The nature of series [16]: Liver microsome stability, rat. It is filed as in vitro ADME. As to conditions: rats, two hours, 1 μM. (Liver microsomes are a subcellular fraction often used to study metabolism.)
Series [17] has as its target potassium ion channel hERG (Homo sapiens, UniProt Q12809). Put plainly: hERG in vitro assay. As to conditions: concentrations as high as 100 μM. (hERG is a cardiac potassium channel; its block is linked to QT prolongation.)
The test system of series [18] is PAR synthesis in LoVo cells. Kind of series: Intracellular PAR formation assay. It is filed as cell-based. As to conditions: Homo sapiens.
Series [19] concerns the target CYP2D6 (Homo sapiens, UniProt P10635). Put plainly: CYP450 inhibition, CYP2D6. It is filed as in vitro ADME. As to conditions: concentrations up to 10 μM; data not shown.
A short description of series [20]: Liver microsome stability, dog. It is filed as in vitro ADME. As to conditions: dogs, two hours, 1 μM.
The test system of series [21] is MX-1 tumor xenografts. Kind of series: MX-1 xenograft, single agent. It is filed as in vivo, mice.
Series [22] concerns LNCap xenograft. Kind of series: LNCap xenograft, single agent. It is filed as in vivo, mice. Particulars: 0.33 mg/kg oral QDx28, vs vehicle-treated control.
The subject of series [23] is MX-1 tumor xenografts. Kind of series: Carboplatin combination study, MX-1 xenograft. It is filed as in vivo, mice.
Series [24] has as its system MDA-MB-468 xenograft. Put plainly: MDA-MB-468 xenograft, single agent. It is filed as in vivo, mice.
A short description of series [25]: Liver microsome stability, human. It is filed as in vitro ADME. Particulars: humans, two hours, 1 μM.
The mark [26] stands for this setting: Homo sapiens, MRC5, read-out: SF50 MRC-5 (Normal).
Where [27] appears, read: Homo sapiens, CAPAN-1, read-out: Capan-1 Cytotoxicity IC50.
[28] abbreviates: Homo sapiens, CAPAN-1, read-out: SF50 Capan-1 (BRCA2 deficient).
Setting [29] is: 2 hours after single oral dose (BMN 673 1 mg/kg; olaparib 100 mg/kg).
[30] abbreviates: 8 hours after single oral dose (BMN 673 1 mg/kg; olaparib 100 mg/kg).
The mark [31] stands for this setting: 24 hours after single oral dose (BMN 673 1 mg/kg; olaparib 100 mg/kg).

Molecules are shown by their SMILES. “And” between values parts separate entries of the source, which are not always exact repeats. Equal values may be shown once. “Also recorded” adds a separate entry of the source. Read-outs that look alike come from different tables or passages of the source.

recombinant human PARP1, sequence (P09874 662-1011): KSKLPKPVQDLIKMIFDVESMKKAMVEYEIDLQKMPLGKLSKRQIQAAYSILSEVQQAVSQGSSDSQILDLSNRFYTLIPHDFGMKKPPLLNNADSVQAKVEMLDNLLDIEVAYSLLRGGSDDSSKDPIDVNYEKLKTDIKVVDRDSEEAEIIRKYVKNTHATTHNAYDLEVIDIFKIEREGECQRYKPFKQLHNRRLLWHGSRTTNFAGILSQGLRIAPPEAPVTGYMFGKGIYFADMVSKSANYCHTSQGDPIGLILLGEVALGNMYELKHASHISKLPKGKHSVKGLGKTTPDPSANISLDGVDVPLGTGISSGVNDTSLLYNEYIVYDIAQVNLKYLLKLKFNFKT
CYP2D6, sequence (P10635 whole entry): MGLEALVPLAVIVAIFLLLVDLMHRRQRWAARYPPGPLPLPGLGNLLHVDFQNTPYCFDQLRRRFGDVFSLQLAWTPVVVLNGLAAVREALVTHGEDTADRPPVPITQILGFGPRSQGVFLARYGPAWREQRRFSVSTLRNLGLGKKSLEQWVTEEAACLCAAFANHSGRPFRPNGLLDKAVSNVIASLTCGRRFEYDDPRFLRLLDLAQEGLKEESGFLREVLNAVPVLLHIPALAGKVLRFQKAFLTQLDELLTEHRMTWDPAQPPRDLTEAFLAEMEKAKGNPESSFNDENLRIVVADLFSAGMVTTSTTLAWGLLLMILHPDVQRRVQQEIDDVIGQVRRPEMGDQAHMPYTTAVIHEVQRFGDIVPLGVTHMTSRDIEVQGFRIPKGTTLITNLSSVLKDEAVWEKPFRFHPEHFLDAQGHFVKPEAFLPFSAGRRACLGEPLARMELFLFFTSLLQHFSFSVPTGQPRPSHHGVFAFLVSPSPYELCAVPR
Poly (ADP-ribose) Glycohydrolase (PARG), sequence (Q86W56 whole entry, species assumed): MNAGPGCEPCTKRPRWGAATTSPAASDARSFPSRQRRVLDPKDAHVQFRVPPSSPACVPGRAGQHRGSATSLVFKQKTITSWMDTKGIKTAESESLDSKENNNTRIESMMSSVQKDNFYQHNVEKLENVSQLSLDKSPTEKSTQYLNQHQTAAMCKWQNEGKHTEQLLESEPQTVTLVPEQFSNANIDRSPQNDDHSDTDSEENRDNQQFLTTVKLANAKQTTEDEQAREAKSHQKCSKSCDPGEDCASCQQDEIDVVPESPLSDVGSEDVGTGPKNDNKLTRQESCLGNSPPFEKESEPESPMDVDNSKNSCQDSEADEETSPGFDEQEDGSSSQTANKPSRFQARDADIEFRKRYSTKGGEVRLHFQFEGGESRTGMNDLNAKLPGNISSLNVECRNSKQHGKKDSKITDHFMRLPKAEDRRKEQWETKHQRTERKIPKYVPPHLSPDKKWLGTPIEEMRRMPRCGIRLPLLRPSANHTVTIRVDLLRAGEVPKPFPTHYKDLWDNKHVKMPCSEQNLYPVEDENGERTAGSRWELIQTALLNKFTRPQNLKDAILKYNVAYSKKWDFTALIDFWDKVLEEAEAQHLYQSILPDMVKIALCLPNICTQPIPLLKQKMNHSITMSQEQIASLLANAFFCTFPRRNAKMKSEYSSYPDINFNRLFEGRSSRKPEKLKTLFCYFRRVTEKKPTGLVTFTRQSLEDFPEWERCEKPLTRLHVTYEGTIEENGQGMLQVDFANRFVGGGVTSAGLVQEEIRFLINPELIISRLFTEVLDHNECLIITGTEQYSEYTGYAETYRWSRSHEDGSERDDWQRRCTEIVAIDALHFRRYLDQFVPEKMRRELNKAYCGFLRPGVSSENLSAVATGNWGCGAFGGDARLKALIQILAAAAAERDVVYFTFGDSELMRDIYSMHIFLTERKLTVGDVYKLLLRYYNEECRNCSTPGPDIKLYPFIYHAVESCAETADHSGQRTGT
CYP2C9, sequence (P11712 whole entry): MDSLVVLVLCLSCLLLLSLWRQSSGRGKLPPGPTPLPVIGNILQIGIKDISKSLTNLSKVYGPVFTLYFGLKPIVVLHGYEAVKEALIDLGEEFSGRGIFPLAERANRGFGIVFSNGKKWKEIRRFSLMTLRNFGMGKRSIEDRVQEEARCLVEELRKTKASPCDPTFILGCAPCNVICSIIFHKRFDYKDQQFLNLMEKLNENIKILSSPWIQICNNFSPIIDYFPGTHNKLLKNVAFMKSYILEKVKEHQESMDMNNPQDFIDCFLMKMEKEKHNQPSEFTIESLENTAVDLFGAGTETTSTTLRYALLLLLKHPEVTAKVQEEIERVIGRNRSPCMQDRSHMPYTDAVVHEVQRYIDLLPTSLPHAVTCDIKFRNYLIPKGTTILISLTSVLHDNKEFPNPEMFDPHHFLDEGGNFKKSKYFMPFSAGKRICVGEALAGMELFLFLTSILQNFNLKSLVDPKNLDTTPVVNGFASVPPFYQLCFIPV
CYP2C19, sequence (P33261 whole entry): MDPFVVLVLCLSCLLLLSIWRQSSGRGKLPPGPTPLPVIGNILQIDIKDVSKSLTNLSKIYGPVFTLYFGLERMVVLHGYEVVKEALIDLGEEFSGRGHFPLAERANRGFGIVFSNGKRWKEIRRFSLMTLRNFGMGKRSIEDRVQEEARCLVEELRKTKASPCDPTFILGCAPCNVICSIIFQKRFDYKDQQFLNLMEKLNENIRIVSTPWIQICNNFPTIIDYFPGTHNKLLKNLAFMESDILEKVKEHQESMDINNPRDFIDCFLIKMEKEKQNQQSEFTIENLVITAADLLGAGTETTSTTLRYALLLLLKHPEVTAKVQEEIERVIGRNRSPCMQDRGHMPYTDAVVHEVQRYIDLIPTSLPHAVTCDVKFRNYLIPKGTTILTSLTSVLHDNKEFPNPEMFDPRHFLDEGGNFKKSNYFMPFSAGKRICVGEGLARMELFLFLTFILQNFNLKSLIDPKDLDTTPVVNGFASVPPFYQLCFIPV
potassium ion channel hERG, sequence (Q12809 whole entry): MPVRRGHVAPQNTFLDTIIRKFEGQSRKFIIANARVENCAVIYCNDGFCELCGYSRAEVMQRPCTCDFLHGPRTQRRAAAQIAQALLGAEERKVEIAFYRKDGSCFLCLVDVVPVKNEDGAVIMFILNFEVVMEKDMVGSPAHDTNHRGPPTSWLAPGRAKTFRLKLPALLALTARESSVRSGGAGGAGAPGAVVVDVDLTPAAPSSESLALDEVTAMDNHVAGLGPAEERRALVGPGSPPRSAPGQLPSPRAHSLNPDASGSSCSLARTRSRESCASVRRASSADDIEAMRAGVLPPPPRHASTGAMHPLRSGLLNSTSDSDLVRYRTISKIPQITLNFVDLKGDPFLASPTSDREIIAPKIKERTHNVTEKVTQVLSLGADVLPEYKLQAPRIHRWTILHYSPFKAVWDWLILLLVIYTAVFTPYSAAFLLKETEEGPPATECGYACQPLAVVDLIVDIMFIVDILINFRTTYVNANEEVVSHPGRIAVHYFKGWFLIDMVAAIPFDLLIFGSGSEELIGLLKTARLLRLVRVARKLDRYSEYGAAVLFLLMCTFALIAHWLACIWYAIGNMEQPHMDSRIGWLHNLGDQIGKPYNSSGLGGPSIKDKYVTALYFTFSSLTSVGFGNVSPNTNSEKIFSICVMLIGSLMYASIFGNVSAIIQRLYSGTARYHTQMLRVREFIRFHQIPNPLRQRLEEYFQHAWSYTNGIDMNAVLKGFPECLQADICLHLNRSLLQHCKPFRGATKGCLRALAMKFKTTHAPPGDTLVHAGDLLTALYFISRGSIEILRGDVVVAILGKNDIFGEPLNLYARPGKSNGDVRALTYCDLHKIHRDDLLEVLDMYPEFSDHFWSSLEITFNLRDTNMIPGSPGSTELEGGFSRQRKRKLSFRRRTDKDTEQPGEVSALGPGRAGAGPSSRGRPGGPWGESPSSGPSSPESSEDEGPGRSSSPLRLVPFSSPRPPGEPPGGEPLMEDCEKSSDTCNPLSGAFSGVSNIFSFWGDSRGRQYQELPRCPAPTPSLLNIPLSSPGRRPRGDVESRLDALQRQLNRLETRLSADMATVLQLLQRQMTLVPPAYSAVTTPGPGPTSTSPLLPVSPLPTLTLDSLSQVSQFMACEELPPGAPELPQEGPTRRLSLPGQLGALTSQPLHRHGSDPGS
CYP3A4, sequence (P08684 whole entry): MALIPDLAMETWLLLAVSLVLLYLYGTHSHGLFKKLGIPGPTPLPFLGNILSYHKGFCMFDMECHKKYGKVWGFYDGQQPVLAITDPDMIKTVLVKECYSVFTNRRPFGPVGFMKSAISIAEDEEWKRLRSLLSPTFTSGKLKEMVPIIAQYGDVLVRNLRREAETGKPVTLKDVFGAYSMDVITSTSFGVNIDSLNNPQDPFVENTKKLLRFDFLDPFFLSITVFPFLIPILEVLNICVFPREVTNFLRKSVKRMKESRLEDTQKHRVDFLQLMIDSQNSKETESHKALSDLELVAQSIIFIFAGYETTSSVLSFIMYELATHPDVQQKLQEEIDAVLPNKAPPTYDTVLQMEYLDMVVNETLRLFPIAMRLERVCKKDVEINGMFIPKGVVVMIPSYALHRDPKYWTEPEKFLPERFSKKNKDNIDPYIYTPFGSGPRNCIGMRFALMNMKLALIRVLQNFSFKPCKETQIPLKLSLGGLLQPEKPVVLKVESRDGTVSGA

`CNCc1ccc(-c2[nH]c3cc(F)cc4c3c2CCNC4=O)cc1` [Rucaparib, rucaparib]: the results for the IC50 in [1] and in series [2] (setting [26]) were 5530 nM and 8530 nM, respectively.

Regarding `Cn1nnc2c(C(N)=O)ncn2c1=O` [TMZ, temozolomide, reference compound], in series [3] (Homo sapiens, 120 h, read-out: cell growth inhibition), the inhibition at 200 µM is roughly 15%.

For `O=C(c1cc(Cc2n[nH]c(=O)c3ccccc23)ccc1F)N1CCN(C(=O)C2CC2)CC1` [Olaparib, olaparib], the IC50 was found to be 6410 nM in [1]; 259 nM in [4] (setting [27]); 259 nM in [4] (setting [28]); 787 nM in series [5]; 5830 nM in series [2] (setting [26]). For the same molecule, the cisplatin sensitizing effect entry in series [6] (olaparib 100 mg/kg oral once-a-day day 1 to 8 plus cisplatin 6 mg/kg) is reported as “equivalent to the lowest dose of BMN 673”. In addition, in series [6] (olaparib 100 mg/kg plus cisplatin 6 mg/kg IP), the “maximum body weight loss” value is reported as 3%. Besides, the “intratumoral PAR level” value in [7] (setting [29]) was “significant decrease”; in series [7] (setting [30]), “partial recovery”; in [7] (setting [31]), “complete recovery”.

For the molecule `N.N.[Cl][Pt][Cl]` [cisplatin, reference compound], the “maximum average body weight loss” value in series [6] (cisplatin alone, 6 mg/kg IP) is listed as 3%.

In the case of `C[C@]1(c2nc3c(C(N)=O)cccc3[nH]2)CCCN1` [Veliparib, veliparib], the IC50 was greater than 10000 nM in [4] (read-out: Capan-1 Cytotoxicity IC50, single agent, 50% cell survival reduction); greater than 10000 nM in series [4] (read-out: SF50 Capan-1 (BRCA2 deficient), 2-D cytotoxicity assay); greater than 10000 nM in [2] (read-out: SF50 MRC-5 (Normal), 2-D cytotoxicity assay). Also, the off-rate in series [8] is 0.0041 s⁻¹. Besides, in [8], the on-rate turned out to be 1.74e+06 M⁻¹ s⁻¹.

In the case of `Cn1ncnc1[C@H]1c2n[nH]c(=O)c3cc(F)cc(c23)N[C@@H]1c1ccc(F)cc1` [BMN 673, (8S,9R)-5-fluoro-8-(4-fluorophenyl)-9-(1-methyl-1H-1,2,4-triazol-5-yl)-8,9-dihydro-2H-pyrido[4,3,2-de]phthalazin-3(7H)-one], in series [9], the CYP3A4 inhibition entry is listed as “did not inhibit”. Besides, the “potentiation of the cytotoxic effect of SN38” value in series [10] is reported as “potentiated”. Further, the CYP1A2 inhibition entry in [11] is “did not inhibit”. Besides, the CYP2C19 inhibition entry in [12] is “did not inhibit”. Besides, the IC50 in series [1] was 1850 nM; in series [4] (setting [27]) it was 5 nM; in series [4] (setting [28]), 5 nM; in [18] (read-out: intracellular PAR formation IC50), 2.5 nM; in series [5], 4 nM; in series [2] (setting [26]), 310 nM. Moreover, the “effect on PARG activity” value in series [13] was “no effect”. Also, in series [14], the CYP2C9 inhibition entry was “did not inhibit”. Besides, in series [15], the “effect of combining with platinum drugs in vitro” value is “clearly additive effect”. Also, the “remaining after incubation in liver microsomes” value in [16], in series [20] and in [25] was “more than 90%” throughout. In addition, in series [17], the hERG inhibition result is “no significant inhibition”. Besides, in [18] (read-out: Cellular PAR Synthesis EC50), the 50% effective concentration (EC50) is 2.5 nM. The CYP2D6 inhibition entry in series [19] is listed as “did not inhibit”. The “maximum average weight loss” value in [6] (BMN 673 0.033 mg/kg plus cisplatin 6 mg/kg IP) was determined as 3%; in [6] (BMN 673 0.1 mg/kg plus cisplatin 6 mg/kg IP), 5%; in [6] (BMN 673 0.33 mg/kg plus cisplatin 6 mg/kg IP), 6%; in series [6] (BMN 673 1 mg/kg plus cisplatin 6 mg/kg IP), 11%. For the same molecule, the animal deaths entry in series [6] (BMN 673 1 mg/kg plus cisplatin, Day 20) was “One animal died”. For the same molecule, the “growth of MX-1 tumor xenografts” value in series [6] (BMN 673 oral once daily days 1-8 plus cisplatin 6 mg/kg IP) is on record as “significantly inhibited in a dose-dependent manner”. In [21] (0.1 mg/kg oral once daily, after extended treatment (>21 days)), the “effect on tumor growth” value is “small effect on tumor growth”. Besides, the “tumor re-establishment after dosing ceased” value in [21] (0.165 mg/kg/dose BID x 28, followed eight weeks after dosing ceased) was “none of the mice had tumor re-growth; also recorded: no re-establishment of tumor”. Further, in [21] (0.165 mg/kg/dose oral BID, 28 days), the “mice achieving complete response (CR)” value was “all 6 mice and 6/6”. The tolerability entry in series [21] (0.33 mg/kg and 0.1 mg/kg, 28 consecutive once daily oral doses) is “well tolerated”; in [23] (BMN 673 0.33 mg/kg plus carboplatin 35 mg/kg IP), “No animal lethality or significant body weight loss”. Moreover, in series [21] (0.33 mg/kg oral once-a-day, 28 days), the “mice achieving complete response (CR, tumor impalpable)” value was “four CRs out of six”. The tumor growth delay in series [22] is 22.8 days; in [24] (0.33 mg/kg oral QDx28, vs vehicle-treated control), 15.9 days. Besides, the “potentiation of TMZ cytotoxicity” value in [3] (combined with 200 μM TMZ) was “significant potentiation”. The off-rate in series [8] was found to be 0.000105 s⁻¹. Further, the on-rate in series [8] came out at 368000 M⁻¹ s⁻¹. Moreover, the “dissociation rate, times slower than that of veliparib” value in series [8] (vs veliparib) is recorded as roughly 40 times. The “potentiation of carboplatin anti-tumor effect in vivo” value in [23] (BMN 673 0.33 mg/kg oral once-a-day 5 or 8 days plus carboplatin 35 mg/kg IP) is recorded as “significant potentiation”. Also, the “intratumoral PAR level” value in series [7] (setting [29]) is “drastically decreased”; in series [7] (setting [30]) it was “drastically decreased”; in series [7] (setting [31]), “Partial recovery”. The “effectiveness of 0.165 mg/kg/dose BIDx28 vs 0.33 mg/kg/dose QDx28” value in series [24] (MDA-MB-468 xenograft) is reported as “slightly more effective”.
